From patent US10865208B2, “ATG7 inhibitors and the uses thereof” (Millennium Pharmaceuticals, Inc., priority 2016, dated 2020)

Biological target: recombinant human His-ATG7 enzyme (Homo sapiens (Human), UniProt O95352)
Assay: ATG7 Enzyme Assay (HTRF/FRET, ATG3-GST and Flag-Gabarap)
Type: biochemical
Settings: for inhibition at 0.123 µM / inhibition at 0.111 µM / inhibition at 0.069 µM: read-out: Percent Inhibition; for inhibition at 0.069 µM: Concentration 0.069 μM
Experimental: Example 97: ATG7 Enzyme Assay
The total volume of the ATG7 enzymatic assay is 50 μL and contains 50 mM HEPES Hemisodium (pH 7.5), 0.05% BSA, 0.01% Tween-20, 25 mM NaCl, 5 mM MgCl2, 10 μM ATP, 250 μM GSH, 5 nM ATG3-GST, 5 nM Flag-Gabarap, 100 μM TCEP and 0.15 nM recombinant human His-ATG7 enzyme. The enzymatic reaction mixture, with and without inhibitor, was incubated at 24° C. for 105 min in a 384-well plate before termination with […] of Stop/Detection buffer (0.1M HEPES Hemisodium pH 7.5, 0.05% Tween20, 20 mM EDTA, 410 mM KF, 0.53 nM Europium-Cryptate labeled monoclonal anti-Flag M2 Antibody (CisBio International) and 8.125 μg/ml PHYCOLINK goat anti-GST allophycocyanin (XL-APC) antibody (Prozyme)). After incubation for 2 hours at 24° C., quantification of FRET is performed on the Pherostar™ (BMG Labtech). Percentage inhibition values at a single concentration or enzyme inhibition (IC50) values are determined from those curves. One skilled in the art will appreciate that the values generated either as percentage inhibition at a single concentration or IC50 values are subject to experimental variation.

Chain of recombinant human His-ATG7 enzyme (O95352 whole entry): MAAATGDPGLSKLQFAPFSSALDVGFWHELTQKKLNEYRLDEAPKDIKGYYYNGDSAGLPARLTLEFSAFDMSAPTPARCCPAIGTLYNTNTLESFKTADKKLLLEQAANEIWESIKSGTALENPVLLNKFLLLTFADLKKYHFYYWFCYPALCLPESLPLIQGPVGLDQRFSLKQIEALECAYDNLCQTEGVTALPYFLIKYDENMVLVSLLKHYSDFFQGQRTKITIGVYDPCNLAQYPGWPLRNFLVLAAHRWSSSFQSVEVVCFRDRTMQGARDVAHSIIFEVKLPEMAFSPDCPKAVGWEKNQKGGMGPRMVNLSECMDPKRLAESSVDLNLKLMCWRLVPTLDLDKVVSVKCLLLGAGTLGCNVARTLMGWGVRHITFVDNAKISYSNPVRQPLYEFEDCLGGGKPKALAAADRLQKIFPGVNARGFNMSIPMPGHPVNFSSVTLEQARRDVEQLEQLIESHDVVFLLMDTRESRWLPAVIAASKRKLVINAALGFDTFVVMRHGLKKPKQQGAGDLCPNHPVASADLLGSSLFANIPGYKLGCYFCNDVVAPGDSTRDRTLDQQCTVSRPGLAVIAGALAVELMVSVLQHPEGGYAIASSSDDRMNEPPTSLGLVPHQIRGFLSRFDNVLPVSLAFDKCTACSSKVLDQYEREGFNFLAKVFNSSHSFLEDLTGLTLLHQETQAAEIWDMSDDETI

Row | Compound | IC50 | inhibition at 0.069 µM | also measured
1 | Nc1ncnc2c1cnn2[C@H]1C[C@H](O)C(COS(N)(=O)=O)O1 (stereo in doubt) [Compound I-226, [(2S,3S,5R)-5-(4-amino-1H-pyrazolo[3,4-d]pyrimidin-1-yl)-3-hydroxytetrahydrofuran-2-yl]methyl sulfamate] | > 0.5 µM |  | inhibition at 0.111 µM (Concentration 0.111 μM): 5%
2 | CC(C)c1nn([C@@H]2O[C@H](COS(N)(=O)=O)[C@@H](O)[C@H]2O)c2ncnc(N)c12 [Compound I-3, [(2R,3S,4R,5R)-5-(4-amino-3-isopropyl-1H-pyrazolo[3,4-d]pyrimidin-1-yl)-3,4-dihydroxytetrahydrofuran-2-yl]methyl Sulfamate] | 0.1 to 0.5 µM | 24% | 
3 | Nc1ncnc2c1c(COCc1ccccc1)nn2[C@@H]1O[C@H](COS(N)(=O)=O)[C@@H](O)[C@H]1O [Compound I-4, [(2R,3S,4R,5R)-5-{4-amino-3-[(benzyloxy)methyl]-1H-pyrazolo[3,4-d]pyrimidin-1-yl}-3,4-dihydroxytetrahydrofuran-2-yl]methyl Sulfamate] | 0.1 to 0.5 µM | 32% | 
4 | CCOc1nn([C@@H]2O[C@H](COS(N)(=O)=O)[C@@H](O)[C@H]2O)c2ncnc(N)c12 [Compound I-5, [(2R,3S,4R,5R)-5-(4-amino-3-ethoxy-1H-pyrazolo[3,4-d]pyrimidin-1-yl)-3,4-dihydroxytetrahydrofuran-2-yl]methyl Sulfamate] | 0.1 to 0.5 µM | 23% | 
5 | CCc1nn([C@@H]2O[C@H](COS(N)(=O)=O)[C@@H](O)[C@H]2O)c2ncnc(N)c12 [Compound I-6, [(2R,3S,4R,5R)-5-(4-amino-3-ethyl-1H-pyrazolo[3,4-d]pyrimidin-1-yl)-3,4-dihydroxytetrahydrofuran-2-yl]methyl Sulfamate] | 0.1 to 0.5 µM | 31% | 
6 | CC(C)Oc1nn([C@@H]2O[C@H](COS(N)(=O)=O)[C@@H](O)[C@H]2O)c2ncnc(N)c12 [Compound I-7, [(2R,3S,4R,5R)-5-(4-amino-3-isopropoxy-1H-pyrazolo[3,4-d]pyrimidin-1-yl)-3,4-dihydroxytetrahydrofuran-2-yl]methyl sulfamate] | > 0.5 µM | 7% | 
7 | Nc1ncnc2c1c(CO)nn2[C@@H]1O[C@H](COS(N)(=O)=O)[C@@H](O)[C@H]1O [Compound I-8, {(2R,3S,4R,5R)-5-[4-amino-3-(hydroxymethyl)-1H-pyrazolo[3,4-d]pyrimidin-1-yl]-3,4-dihydroxytetrahydrofuran-2-yl}methyl Sulfamate] | 0.1 to 0.5 µM | 32% | 
8 | COCC#Cc1nn([C@@H]2O[C@H](COS(N)(=O)=O)[C@@H](O)[C@H]2O)c2ncnc(N)c12 [Compound I-11, {(2R,3S,4R,5R)-5-[4-amino-3-(3-methoxyprop-1-yn-1-yl)-1H-pyrazolo[3,4-d]pyrimidin-1-yl]-3,4-dihydroxytetrahydrofuran-2-yl}methyl Sulfamate] | > 0.5 µM | 9% | 
9 | Nc1ncnc2c1c(CCc1ccccc1)nn2[C@@H]1O[C@H](COS(N)(=O)=O)[C@@H](O)[C@H]1O [Compound I-12, {(2R,3S,4R,5R)-5-[4-amino-3-(2-phenylethyl)-1H-pyrazolo[3,4-d]pyrimidin-1-yl]-3,4-dihydroxytetrahydrofuran-2-yl}methyl Sulfamate] | 0.1 to 0.5 µM |  | inhibition at 0.123 µM (Concentration 0.123 μM): 20%
10 | CC#Cc1nn([C@@H]2O[C@H](COS(N)(=O)=O)[C@@H](O)[C@H]2O)c2ncnc(N)c12 [Compound I-14, {(2R,3S,4R,5R)-5-[4-amino-3-(prop-1-yn-1-yl)-1H-pyrazolo[3,4-d]pyrimidin-1-yl]-3,4-dihydroxytetrahydrofuran-2-yl}methyl Sulfamate] | 0.1 to 0.5 µM | 17% | 
11 | NCc1nn([C@@H]2O[C@H](COS(N)(=O)=O)[C@@H](O)[C@H]2O)c2ncnc(N)c12 [Compound I-15, {(2R,3S,4R,5R)-5-[4-amino-3-(aminomethyl)-1H-pyrazolo[3,4-d]pyrimidin-1-yl]-3,4-dihydroxytetrahydrofuran-2-yl}methyl Sulfamate] | > 0.5 µM | 16% | 
12 | NC(=O)c1nn([C@@H]2O[C@H](COS(N)(=O)=O)[C@@H](O)[C@H]2O)c2ncnc(N)c12 [Compound I-16, [(2R,3S,4R,5R)-5-(4-amino-3-carbamoyl-1H-pyrazolo[3,4-d]pyrimidin-1-yl)-3,4-dihydroxytetrahydrofuran-2-yl]methyl Sulfamate] | 0.1 to 0.5 µM | 22% | 
13 | NCC#Cc1nn([C@@H]2O[C@H](COS(N)(=O)=O)[C@@H](O)[C@H]2O)c2ncnc(N)c12 [Compound I-17, {(2R,3S,4R,5R)-5-[4-amino-3-(3-aminoprop-1-yn-1-yl)-1H-pyrazolo[3,4-d]pyrimidin-1-yl]-3,4-dihydroxytetrahydrofuran-2-yl}methyl Sulfamate] | > 0.5 µM | 10% | 

Continued, in another order:

Row | IC50 | inhibition at 0.069 µM | Compound | also measured
14 | 0.05 to 0.1 µM |  | CC(O)CSc1nn([C@@H]2O[C@H](COS(N)(=O)=O)[C@@H](O)[C@H]2O)c2ncnc(N)c12 (single isomer, unassigned) [Compound I-55a, [(2R,3S,4R,5R)-5-(4-amino-3-{[(2R)-2-hydroxypropyl]sulfanyl}-1H-pyrazolo[3,4-d]pyrimidin-1-yl)-3,4-dihydroxytetrahydrofuran-2-yl]methyl sulfamate or [(2R,3S,4R,5R)-5-(4-amino-3-{[(2S)-2-hydroxypropyl]sulfanyl}-1H-pyrazolo[3,4-d]pyrimidin-1-yl)-3,4-dihydroxytetrahydrofuran-2-yl]methyl Sulfamate] | Percent Inhibition (Concentration 0.123 μM): 71%
15 | 0.05 to 0.1 µM |  | CC(O)CSc1nn([C@@H]2O[C@H](COS(N)(=O)=O)[C@@H](O)[C@H]2O)c2ncnc(N)c12 (single isomer, unassigned) [Compound I-55b, [(2R,3S,4R,5R)-5-(4-amino-3-{[(2R)-2-hydroxypropyl]sulfanyl}-1H-pyrazolo[3,4-d]pyrimidin-1-yl)-3,4-dihydroxytetrahydrofuran-2-yl]methyl sulfamate or [(2R,3S,4R,5R)-5-(4-amino-3-{[(2S)-2-hydroxypropyl]sulfanyl}-1H-pyrazolo[3,4-d]pyrimidin-1-yl)-3,4-dihydroxytetrahydrofuran-2-yl]methyl Sulfamate] | inhibition at 0.123 µM (Concentration 0.123 μM): 68%
16 | 0.05 to 0.1 µM |  | CCC(C)Sc1nn([C@@H]2O[C@H](COS(N)(=O)=O)[C@@H](O)[C@@H]2F)c2ncnc(N)c12 (single isomer, unassigned) [Compound I-136a] | Percent Inhibition (Concentration 0.111 μM): 63%
17 | 0.05 to 0.1 µM |  | CCC(C)Sc1nn([C@@H]2O[C@H](COS(N)(=O)=O)[C@@H](O)[C@@H]2F)c2ncnc(N)c12 (single isomer, unassigned) [Compound I-136b] | inhibition at 0.111 µM (Concentration 0.111 μM): 61%
18 | 0.1 to 0.5 µM |  | COC(=O)c1nn([C@@H]2O[C@H](COS(N)(=O)=O)C(O)C2O)c2ncnc(N)c12 (stereo in doubt) [Compound I-20, methyl 4-amino-1-{(2R,3S,4R,5R)-3,4-dihydroxy-5-[(sulfamoyloxy)methyl]tetrahydrofuran-2-yl}-1H-pyrazolo[3,4-d]pyrimidine-3-carboxylate] | inhibition at 0.123 µM (Concentration 0.123 μM): 45%
19 | 0.05 to 0.1 µM |  | Cc1ccc(Sc2nn([C@H]3C[C@H](O)C(COS(N)(=O)=O)O3)c3ncnc(N)c23)c(F)c1 (stereo in doubt) [Compound I-211, [(2S,3S,5R)-5-{4-amino-3-[(2-fluoro-4-methylphenyl)sulfanyl]-1H-pyrazolo[3,4-d]pyrimidin-1-yl}-3-hydroxytetrahydrofuran-2-yl]methyl Sulfamate] | Percent Inhibition (Concentration 0.111 μM): 64%
20 | 0.05 to 0.1 µM |  | COc1nn([C@@H]2O[C@H](COS(N)(=O)=O)[C@@H](O)[C@H]2O)c2ncnc(N)c12 [Compound I-1, [(2R,3S,4R,5R)-5-(4-amino-3-methoxy-1H-pyrazolo[3,4-d]pyrimidin-1-yl)-3,4-dihydroxytetrahydrofuran-2-yl]methyl sulfamate] | inhibition at 0.123 µM (Concentration 0.123 μM): 51%
21 | 0.1 to 0.5 µM |  | Cc1nn([C@@H]2O[C@H](COS(N)(=O)=O)[C@@H](O)[C@H]2O)c2ncnc(N)c12 [Compound I-2, [(2R,3S,4R,5R)-5-(4-amino-3-methyl-1H-pyrazolo[3,4-d]pyrimidin-1-yl)-3,4-dihydroxytetrahydrofuran-2-yl]methyl Sulfamate] | inhibition at 0.123 µM (Concentration 0.123 μM): 42%
22 | 0.05 to 0.1 µM | 52% | C#Cc1nn([C@@H]2O[C@H](COS(N)(=O)=O)[C@@H](O)[C@H]2O)c2ncnc(N)c12 [Compound I-9, [(2R,3S,4R,5R)-5-(4-amino-3-ethynyl-1H-pyrazolo[3,4-d]pyrimidin-1-yl)-3,4-dihydroxytetrahydrofuran-2-yl]methyl Sulfamate] | 
23 | 0.05 to 0.1 µM | 48% | Nc1ncnc2c1c(C(F)(F)F)nn2[C@@H]1O[C@H](COS(N)(=O)=O)[C@@H](O)[C@H]1O [Compound I-10, {(2R,3S,4R,5R)-5-[4-amino-3-(trifluoromethyl)-1H-pyrazolo[3,4-d]pyrimidin-1-yl]-3,4-dihydroxytetrahydrofuran-2-yl}methyl Sulfamate] | 
24 | 0.02 to 0.05 µM |  | N#Cc1nn([C@@H]2O[C@H](COS(N)(=O)=O)[C@@H](O)[C@H]2O)c2ncnc(N)c12 [Compound I-13, [(2R,3S,4R,5R)-5-(4-amino-3-cyano-1H-pyrazolo[3,4-d]pyrimidin-1-yl)-3,4-dihydroxytetrahydrofuran-2-yl]methyl Sulfamate] | inhibition at 0.123 µM (Concentration 0.123 μM): 80%
